Patent publication US20250020658A1, “METHODS FOR SYNTHESIZING AND IDENTIFYING SYNTHETIC PROTEINS INCLUDING TARGETED THERAPEUTICS FOR NEURODEGENERATIVE DISORDERS BASED ON BIO-MIMICRY APPROACHES” (University of Denver, priority 2023, published 2025)
“Also recorded” adds a separate entry of the source. Like-named read-outs stand apart in the source and are kept apart here.

Legend:
[1] = molecular target: α-Synuclein (αS) aggregation (Homo sapiens, UniProt P37840); test: Thioflavin T (ThT) dye-based aggregation assay against aggregation of αS; assay type: biochemical; conditions: lower ThT intensity = higher antagonist activity
Excerpt: The resulting dimers are again evaluated with a ThT assay (step (g)), and the best performing dimer is selected in a step (h). The process is repeated to screen for the best performing trimer (step (i)), and so on.
In particular, FIG. 21 is a graph comparing the relative ThT intensities of various molecules synthesized using the 2D FAST process, in accordance with embodiments. The lower the ThT intensity, the higher the antagonist activity of ligands against the target protein (synuclein aggregation in this example).

C. elegans PD models = test: C. elegans Parkinson's disease models; assay type: in vivo; conditions: for rescue of PD phenotypes: multiple C. elegans PD models: degeneration of dopaminergic neurons, increase in reactive oxygen species, reduced motility
Excerpt: Using OPs as the basis, the 2D FAST approach was used to identify potent antagonists of α-Synuclein (αS) aggregation, a process central to Parkinson's disease (PD) as discussed above. […] (See, for example, “A 2D Fragment-Assisted Protein Mimetic Approach to Rescue α-Synuclein Aggregation Mediated Early and Post-Disease Parkinson's Phenotypes,” bioRxiv preprint posted 2022 Jul. 13, doi: https://doi.org/10.1101/2022.07.11.499659)

[2] = Parallel Artificial Membrane Permeability Assay (PAMPA); assay type: in vitro ADME; conditions: NS163 compared with NS132
Excerpt: FIG. 22 is a graph comparing the cell permeability of various ligands identified and synthesized using the 2D FAST approach and assessed using the Parallel Artificial Membrane Permeability Assay (PAMPA) technique. […] FIG. 25 is a graph comparing the relative ThT intensities of various molecules synthesized using the 2D FAST process in the presence of αS, in accordance with embodiments.

[3] = mouse model; cited from earlier work
αS oligomers = αS oligomers (Homo sapiens, UniProt P37840); conditions: pathological high molecular weight αS oligomers vs αS monomers (native conformation), cited from earlier work

Question: For `Cc1ccc(NC(=O)c2ccc([N+](=O)[O-])c(NCC3CCCCC3)n2)c(OCC(=O)O)n1` [NS55], which “antagonist activity against αS aggregation” value (shortened to “antagonist activity”) [1] is on record?
Answer: Its value is “potent inhibitor of α-Synuclein aggregation”.

Question: With `Cc1ccc(NC(=O)c2ccc(NC(=O)c3ccc([N+](=O)[O-])c(NCCc4c[nH]c5ccccc45)n3)c(NCC3CCCCC3)n2)c(OCC(=O)O)n1` [NS132] as the compound, how does the “antagonist activity” value [1] read?
Answer: Its value is “most potent tripyridyl; also recorded: antagonist of the multiple facets of αS aggregation”.

Question: What about the “rescue of PD phenotypes” value (C. elegans PD models) of the same compound?
Answer: The value was “very effective ligands in rescuing PD phenotypes”.

Question: For `Cc1ccc(NC(=O)c2ccc(NC(=O)c3ccc([N+](=O)[O-])c(NCCc4c[nH]c5ccccc45)n3)c(NCC3CCCCC3)n2)c(OCC(=O)NO)n1` [NS163], which “antagonist activity” value [1] is on record?
Answer: The value was “potent antagonist of α-Synuclein aggregation; also recorded: without sacrificing activity”.

Question: What about the cell permeability [2] of the same compound?
Answer: The cell permeability was “increased cell permeability; also recorded: better cell permeability”.

Question: And the “activity within a C. elegans Parkinson's disease model” value (C. elegans PD models; NS163 as enhanced version of NS132)?
Answer: Its value is “increased cell permeability and activity”.

Question: And the “rescue of PD phenotypes” value (C. elegans PD models)?
Answer: Its value is “very effective ligands in rescuing PD phenotypes”.

Question: Which “crossing of the BBB” value [3] does the source give for `COC(=O)c1cc(OCC(=O)O)c2cccc(NC(=O)c3cc(OC(C)C)c4cccc(NC(=O)c5cc(OCC(=O)O)c6cccc(NC(=O)c7cc(OC(C)C)c8cccc([N+](=O)[O-])c8n7)c6n5)c4n3)c2n1` [SK-129] here?
Answer: Its value is “efficiently crosses the BBB”.

Question: What about the toxicity [3] of the same compound?
Answer: The toxicity was “without demonstrating any toxicity”.

Question: And the “affinity to αS oligomers relative to αS monomers” value (αS oligomers)?
Answer: Its value is 10 fold.

Question: And the “affinity to αS oligomers relative to αS monomers” value (αS oligomers; listed as SK-α129)?
Answer: Its value is “ten-fold higher affinity”.
